Results taken from patent publication US20240010640A1, “ANTAGONISTS OF THE MUSCARINIC ACETYLCHOLINE RECEPTOR M4” (Vanderbilt University, priority 2020, published 2024).

What was measured:
Human M4 = biological target: T1, Human M4 (Homo sapiens, UniProt P08173); assay: mAChR M4 cell-based functional assay (calcium flux, antagonist mode); settings: for IC50: Human M4/Gqi5 CHO-K1 cells, decrease of acetylcholine response; for Emin (% ACh maximum at 30 μM): Human M4
T1 construct: Human or rat M4 cDNA, along with the chimeric G protein Gqi5, were transfected into Chinese hamster ovary (CHO-K1) cells; expressed in transfected cells; host or cells: CHO-K1 (Chinese hamster ovary, ATCC), stably expressing M4 and Gqi5
T1 sequence (P08173 1-479): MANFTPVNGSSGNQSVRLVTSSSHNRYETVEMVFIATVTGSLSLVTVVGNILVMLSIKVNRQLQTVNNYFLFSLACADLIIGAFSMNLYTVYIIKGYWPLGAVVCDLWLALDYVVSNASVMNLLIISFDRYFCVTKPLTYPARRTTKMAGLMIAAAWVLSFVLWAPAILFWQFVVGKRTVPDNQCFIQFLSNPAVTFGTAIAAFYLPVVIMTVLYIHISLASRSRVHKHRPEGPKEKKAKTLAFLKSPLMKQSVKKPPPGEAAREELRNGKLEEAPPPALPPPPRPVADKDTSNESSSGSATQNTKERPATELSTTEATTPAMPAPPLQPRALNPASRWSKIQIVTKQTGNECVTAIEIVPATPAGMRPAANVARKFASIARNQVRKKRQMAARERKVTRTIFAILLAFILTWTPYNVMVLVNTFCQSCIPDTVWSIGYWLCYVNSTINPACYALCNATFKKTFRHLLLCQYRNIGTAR
Experimental: Human or rat M4 cDNA, along with the chimeric G protein Gqi5, were transfected into Chinese hamster ovary (CHO-K1) cells purchased from the American Type Culture Collection using Lipofectamine2000. M4/Gqi5/CHO cells were grown in Ham's F-12 medium containing 10% heat-inactivated fetal bovine serum (FBS), 20 mM HEPES, 500 μg/mL G418 sulfate, and 200 μg/mL Hygromycin B.
For high throughput measurement of agonist-evoked increases in intracellular calcium, CHO-K1 cells stably expressing muscarinic receptors were plated in growth medium lacking G418 and hygromycin at 15,000 cells/20 μL/well in Greiner 384-well black-walled, tissue culture (TC)-treated, clear-bottom plates (VWR). Cells were incubated overnight at 37° C. and 5% CO2. The next day, cells were washed using an ELX 405 (BioTek) with assay buffer; the final volume was then aspirated to 20 μL. Next, 20 μL of a 2.3 μM stock of Fluo-4/acetoxymethyl ester (Invitrogen, Carlsbad, CA), prepared as a 2.3 mM stock in DMSO and mixed in a 1:1 ratio with 10% (w/v) Pluronic F-127 and diluted in assay buffer, was added to the wells and the cell plates were incubated for 50 min at 37° C. and 5% CO2. Dye was removed by washing with the ELX 405 and the final volume was aspirated to 20 μL. Compound master plates were formatted in a 10 point concentration-response curve (CRC) format (1:3 dilutions) in 100% DMSO with a starting concentration of 10 or 1 mM using a BRAVO liquid handler (Agilent). Test compound CRCs were then transferred to daughter plates (240 nL) using the Echo acoustic plate reformatter (Labcyte, Sunnyvale, CA) and then diluted into assay buffer (40 μL) to a 2× stock using a Thermo Fisher Combi (Thermo Fisher Scientific, Waltham, MA).
Calcium flux was measured using the Functional Drug Screening System (FDSS) 6000 or 7000 (Hamamatsu Corporation, Tokyo, Japan) as an increase in the fluorescent static ratio. Compounds were applied to cells (20 μL, 2×) using the automated system of the FDSS at 2 seconds into the protocol and the data were collected at 1 Hz. At 143 s, 10 μL of an EC20 concentration of the muscarinic receptor agonist acetylcholine was added (5×), followed by the addition of 12 μL of an […] concentration of acetylcholine at the 268 s time point (5×). Agonist activity was analyzed as a concentration-dependent increase in calcium mobilization upon compound addition. Positive allosteric modulator activity was analyzed as a concentration-dependent increase in the EC20 acetylcholine response. Antagonist activity was analyzed as a concentration-dependent decrease in the EC80 acetylcholine response; for the purposes of the tables herein, an IC50 (inhibitory concentration 50) was calculated as a concentration-dependent decrease of the response elicited by an […] concentration of acetylcholine. Concentration-response curves were generated using a four-parameter logistical equation in XLFit curve fitting software (IDBS, Bridgewater, NJ) for Excel (Microsoft, Redmond, WA) or Prism (GraphPad Software, Inc., San Diego, CA) or the Dotmatics software platform (Dotmatics, Bishop's Stortford, UK).
Compounds were synthesized as described above. Activity (IC50 and Emin) was determined in the mAChR M4 cell-based functional assay as described above and the data are shown in Table 1.

[1] = test system: catalepsy induced by the DA receptor antagonist haloperidol; settings: cited from earlier work
M4 knockout mice = settings: but not the other four mAChR subtypes; cited from earlier work

| IC50 (Human M4) [nM] | Emin (% ACh maximum at 30 μM) (Human M4) [%] | Structure (SMILES) | reduction of haloperidol-induced catalepsy ([1]; M4 KO mice) | reversal of haloperidol-induced catalepsy ([1]; WT mice) | locomotor-activating effects (M4 knockout mice) |
| --- | --- | --- | --- | --- | --- |
| 11.4 | 4 | [2H]C([2H])(C1CCOCC1)N1C[C@H]2C[C@H](Nc3ccc(-c4cc(F)c(=O)n(C)c4)nn3)C[C@H]2C1 [A18, 3-fluoro-1-methyl-5-(6-(((3aR,5s,6aS)-2-((tetrahydro-2H-pyran-4-yl)methyl-d2)octahydrocyclopenta[c]pyrrol-5-yl)amino)pyridazin-3-yl)pyridin-2(1H)-one] |  |  |  |
| 3370 | 10 | Cn1cccc(-c2cnc(N[C@H]3C[C@@H]4CN(CC5CCOCC5)C[C@@H]4C3)nc2)c1=O [B1, 1-methyl-3-(2-(((3aR,5s,6aS)-2-((tetrahydro-2H-pyran-4-yl)methyl)octahydrocyclopenta[c]pyrrol-5-yl)amino)pyrimidin-5-yl)pyridin-2(1H)-one] |  |  |  |
|  |  | CN1[C@@H]2C[C@@H](OC(=O)[C@H](CO)c3ccccc3)C[C@H]1[C@@H]1O[C@@H]12 [scopolamine] | ineffective | completely reversed | dramatically reduced |
